According to patent publication US10123969B2, “Osmotic enhancement of drug/therapeutic delivery to the brain following infusion or injection into the cerebrospinal fluid” (Wisconsin Alumni Research Foundation, priority 2015, dated 2018):
≈ marks a conversion by molar mass, not a printed value. Where “and” joins values, the source holds several entries; their conditions need not be identical. Equal values may be shown once. Entries after “also recorded” stand apart in the source; their conditions may differ. Read-outs that look alike come from different tables or passages of the source.

Legend:
[1] = hypertonic solutions, animals (Speck et al. 1988); cited from earlier work
[2] = Perivascular counting of IgG signal in brain sections after intracisternal infusion with or without mannitol (ex vivo fluorescence, ImageJ); parameters: species or system rat
Description: Female Sprague-Dawley rats (180-240 g) were anesthetized to a surgical plane of anesthesia using 1.3 g/kg intraperitoneal urethane (boostered to effect), tracheotomized, and placed in a stereotaxic frame (Stoelting). Atropine (0.1 mg/kg every two hours) was given subcutaneously to reduce fluid secretion in lungs. An incision was made on the back of the neck and the muscles were dissected from the occipital bone to expose the atlanto-occipital membrane, which was retracted to reveal the dura overlying the cisterna magna. A custom cannula (˜1 cm long) made of 33 GA polyether ether ketone (PEEK, Plastics One) was connected to a Hamilton syringe controlled by an infusion pump (Quintessential Stereotaxic Injector, Stoelting) via polyethylene-10 tubing (Solomon Scientific). The tubing was prefilled with infusate (i.e., antibody solution with or without mannitol), the dura punctured with a dental needle, and the PEEK cannula immediately inserted at a 60-degree angle from the horizontal, advanced 1 mm into the cisterna magna, and sealed with cyanoacrylate.
For ex vivo fluorescence, AlexaFluor488 goat-anti-rabbit IgG in PBS (as provided) or in PBS with mannitol (described below) was infused at 1.6 uL/min for 50 minutes (80 uL total), a rate that is expected to be physiological as it is approximately half the CSF production rate and has been shown not to increase intracranial pressure in rats (Yang et al. J Trans Med 2013). The abdominal aorta was then cannulated and thirty minutes after the infusion completed the animal was perfused with ˜50 mL ice cold 0.01 M PBS followed by ˜450 mL 4% paraformaldehyde in 0.1 M phosphate buffer following a blood draw. The brain was removed and placed in 4% paraformaldehyde or phosphate buffered saline overnight, then sliced into 100 micrometer sections using a vibratome. Sections were imaged on an Olympus MVX10 using an Orca-flash 2.8 CMOS camera (Hamamatsu), a Lumen Dynamics X-Cite 120Q illuminator and an appropriate filter set (Chroma, U-M49002XL).
(§1) AlexaFluor 488 goat-anti-rabbit IgG was prepared in 0.27 M or 0.75 M mannitol in 0.01M PBS using 0.5 mL Amicon Ultra 100 kDa molecular weight cutoff centrifugal filters for buffer exchange. IgG was added to the filter and washed/spun from 0.5 mL three times with 0.27 M or 0.75 M mannitol solution (osmolality 507 mOsm/kg and 988 mOsm/kg, respectively); each spin was 10 minutes at 14,000 g. Recovery spin was 2 minutes at 1,000 g. Concentration of IgG protein (absorbance at 280 nm) was measured using a NanoDrop 2000 (Thermo Fisher), and after concentration/buffer exchange in mannitol the protein concentration was diluted to the same concentration so animals received identical amounts of IgG whether administered in provided buffer or buffer with mannitol.
To quantify perivascular signal between treatments, images were opened in ImageJ/Fiji, thresholded to eliminate background, and the Analyze Particles command was used to count and outline ‘particles’, or perivascular signal, with no restrictions on size or circularity, as well as providing additional information such as circularity, area, and average size.

[3] = Confocal imaging of cerebral internal carotid artery: IgG access to smooth muscle basement membrane; format: in vivo, rat
Description: as §1

[4] = Fluorescence imaging of spinal cord slices after intrathecal infusion of IgG with or without mannitol; format: in vivo, rat
Description: FIG. 8 (A-C). […] The spinal cord has a simple structure—an outer spinal white matter that has few blood vessels and an inner spinal gray matter which has a dense network of blood vessels.
Female Sprague-Dawley rats (180-240 g) were anesthetized to a surgical plane of anesthesia using 1.3 g/kg intraperitoneal urethane (boostered to effect), tracheotomized, and placed in a stereotaxic frame (Stoelting). Atropine (0.1 mg/kg every two hours) was given subcutaneously to reduce fluid secretion in lungs. […]
For ex vivo fluorescence, AlexaFluor488 goat-anti-rabbit IgG in PBS (as provided) or in PBS with mannitol (described below) was infused at 1.6 uL/min for 50 minutes (80 uL total), a rate that is expected to be physiological as it is approximately half the CSF production rate and has been shown not to increase intracranial pressure in rats (Yang et al. J Trans Med 2013). […]
as §1, with “IgG was added to the filter and washed/spun from 0.5 mL three times with 0.27 M or 0.75 M mannitol solution (osmolality 507 mOsm/kg and 988 mOsm/kg, respectively); each spin was 10 minutes at 14,000 g. Recovery spin was 2 minutes at 1,000 g.” left out

[5] = cited from earlier work
[6] = Osmolality of mannitol infusion solutions; format: physicochemical
Description: as §1
We have measured the osmolality of both the 0.27 M mannitol (507-564 mOsm/kg) and 0.75 M mannitol (988-1126 mOsm/kg) solutions.

## OC[C@@H](O)[C@@H](O)[C@H](O)[C@H](O)CO [mannitol]
[1]
  tolerability of intrathecal infusion: well tolerated
[2]; 0.27 M mannitol co-infusion vs IgG alone (controls)
  perivascular access of IgG (in words): improved access; also recorded: slight increase
[2]; 0.75 M mannitol co-infused with labeled 150 kDa IgG
  brain distribution of IgG via the perivascular spaces (in words): dramatically greater brain distribution
[2]; 0.75 M mannitol co-infusion vs 0.27 M mannitol co-infusion or IgG alone
  number of vessels accessed by IgG (in words): significantly increased
[2]; IgG with 0.75 M mannitol co-infusion vs single domain antibody without mannitol
  number of vessels with perivascular signal (in words): significantly higher number of vessels
[2]; mannitol between 0.27 M and 0.75 M
  dose dependence of perivascular access of IgG: dose-dependent manner; also recorded: dose-dependent increase
[3]; 0.27 M mannitol co-infusion vs IgG without mannitol
  IgG access to the basement membrane of the smooth muscle layer (in words): modestly increased; also recorded: no visible improvement
[3]; 0.75 M mannitol co-infusion vs IgG without mannitol
  IgG access to the basement membrane of the smooth muscle layer (in words): strikingly increased; also recorded: markedly improved; also recorded: noticeably increased
[4]; 0.27 M mannitol co-infusion vs IgG alone
  number of IgG perivascular profiles in spinal gray (in words): slight increase
[4]; 0.75 M mannitol co-infusion
  number of perivascular spaces with IgG signal in spinal cord (in words): striking increase
[5]; at 40 C (just above body temperature)
  solubility: 2000 mM (≈ 364 mg/mL)
[5]; at 40 C (just above body temperature), listed as Mannitol
  solubility: 1900 to 1940 mM
[6]; 0.27 M mannitol solution
  osmolality: 507 mOsm/kg and 507-564 mOsm/kg
[6]; 0.75 M mannitol solution
  osmolality: 988 mOsm/kg and 988-1126 mOsm/kg

## OC[C@@H](O)[C@@H](O)[C@H](O)[C@@H](O)CO [Sorbitol]
[5]; Merck Index
  solubility in water: up to 83%

## CC(C)[C@H](N)C(=O)O [L-Valine]
[5]; at 25 C (Needham et al. 1971)
  solubility: 514 mM (≈ 60.2 mg/mL)

## OC[C@@H](O)[C@@H](O[C@H]1O[C@H](CO)[C@@H](O)[C@H](O)[C@H]1O)[C@H](O)[C@@H](O)CO [Maltitol]
[5]; at 37 C (body temperature)
  solubility: 5810 mM (≈ 2000 mg/mL)

## O=C[C@H](O)[C@@H](O)[C@H](O)CO [Xylose]
[5]; Merck Index, temperature not given
  solubility: 8320 mM (≈ 1250 mg/mL)
[5]; at 25 C (Gabas et al. 1988)
  solubility: 3660 mM (≈ 549 mg/mL)

## N[C@@H](Cc1ccccc1)C(=O)O [L-Phenylalanine]
[5]; at 25 C (Needham et al. 1971)
  solubility: 208 mM (≈ 34.4 mg/mL)

## C[C@H](N)C(=O)O [L-Alanine]
[5]; at 25 C (Needham et al. 1971)
  solubility: 1670 mM (≈ 149 mg/mL)
